Values quoted from earlier work in US9358096B2, “Methods of treatment with drug eluting stents with prolonged local elution profiles with high local concentrations and low systemic concentrations” (Abbott Laboratories, priority 2007, dated 2016).

How the values were obtained:
[1] = cited from earlier work
[2] = kidney transplant recipients; usual oral dose of sirolimus of 2 mg per day; cited from earlier work

CO[C@H]1C[C@@H]2CC[C@@H](C)[C@@](O)(O2)C(=O)C(=O)N2CCCC[C@H]2C(=O)O[C@H]([C@H](C)C[C@@H]2CC[C@@H](O)[C@H](OC)C2)CC(=O)[C@H](C)/C=C(\C)[C@@H](O)[C@@H](OC)C(=O)[C@H](C)C[C@H](C)/C=C/C=C/C=C/1C [sirolimus]
peak concentration of sirolimus, one patient ([1]; after receiving three 80 mm stents configured as stent 1): 35.5 ng/mL
mean systemic sirolimus concentration ([1]; patients treated with stent 1, one hour after stenting): 20.4 ± 10.0 ng/mL
trough concentration [2]: 9 ng/mL
